Data as given in PubChem BioAssay (NCI).
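Interpolation was linear, between the two tested concentrations surrounding the appropriate level; five concentrations were tested over 48 hours in 96-well plates. GI50 is the concentration that inhibits growth by half. TGI: total growth inhibition.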

Tests used:
Assay in all cases: DTP human tumour cell line panel, 48 h; in the data active means GI50 below about 0.43 µM; inactive means the rest
786-0 renal = system: 786-0 renal
A498 renal = system: A498 renal
A549 NSCLC = system: A549 NSCLC
ACHN renal = system: ACHN renal
BT-549 breast = system: BT-549 breast
CAKI-1 renal = system: CAKI-1 renal
CCRF-CEM leukemia = system: CCRF-CEM leukemia
COLO 205 colon = system: COLO 205 colon
DU-145 prostate = system: DU-145 prostate
EKVX NSCLC = system: EKVX NSCLC
HCC-2998 colon = system: HCC-2998 colon
HCT-116 colon = system: HCT-116 colon
HCT-15 colon = system: HCT-15 colon
HL-60(TB) leukemia = system: HL-60(TB) leukemia
HOP-62 NSCLC = system: HOP-62 NSCLC
HOP-92 NSCLC = system: HOP-92 NSCLC
HS 578T breast = system: HS 578T breast
HT29 colon = system: HT29 colon
IGROV1 ovarian = system: IGROV1 ovarian
K-562 leukemia = system: K-562 leukemia
KM12 colon = system: KM12 colon
LOX IMVI melanoma = system: LOX IMVI melanoma
M14 melanoma = system: M14 melanoma
MALME-3M melanoma = system: MALME-3M melanoma
MCF7 breast = system: MCF7 breast
MDA-MB-231 breast = system: MDA-MB-231 breast
MDA-MB-435 = system: MDA-MB-435
MOLT-4 leukemia = system: MOLT-4 leukemia
NCI-H226 lung = system: NCI-H226 lung
NCI-H23 lung = system: NCI-H23 lung
NCI-H460 lung = system: NCI-H460 lung
NCI-H522 lung = system: NCI-H522 lung
NCI/ADR-RES ovarian = system: NCI/ADR-RES ovarian
OVCAR-4 ovarian = system: OVCAR-4 ovarian
OVCAR-5 ovarian = system: OVCAR-5 ovarian
OVCAR-8 ovarian = system: OVCAR-8 ovarian
PC-3 prostate = system: PC-3 prostate
RPMI-8226 leukemia = system: RPMI-8226 leukemia
RXF 393 renal = system: RXF 393 renal
SF-268 CNS = system: SF-268 CNS
SF-295 CNS = system: SF-295 CNS
SF-539 CNS = system: SF-539 CNS
SK-MEL-2 melanoma = system: SK-MEL-2 melanoma
SK-MEL-28 melanoma = system: SK-MEL-28 melanoma
SK-MEL-5 melanoma = system: SK-MEL-5 melanoma
SK-OV-3 ovarian = system: SK-OV-3 ovarian
SN12C renal = system: SN12C renal
SNB-19 CNS = system: SNB-19 CNS
SNB-75 CNS = system: SNB-75 CNS
SR leukemia = system: SR leukemia
SW-620 colon = system: SW-620 colon
T-47D breast = system: T-47D breast
TK-10 renal = system: TK-10 renal
U251 CNS = system: U251 CNS
UACC-257 melanoma = system: UACC-257 melanoma
UACC-62 melanoma = system: UACC-62 melanoma
UO-31 renal = system: UO-31 renal

Oc1ccc(CSc2nnc(-c3ccc(Oc4ccccc4)cc3)n2-c2ccccc2)c2cccnc12
1.06 µM: TGI (HL-60(TB) leukemia)
20.3 µM: TGI (SR leukemia)
22.7 µM: TGI (SNB-75 CNS)
> 38.5 µM: TGI (MOLT-4 leukemia)
9.18 µM: TGI (T-47D breast)
active: GI50 (A549 NSCLC) 0.133 µM | GI50 (ACHN renal) 0.137 µM | GI50 (BT-549 breast) 0.105 µM | GI50 (CAKI-1 renal) 0.313 µM | GI50 (CCRF-CEM leukemia) 0.0729 µM | GI50 (DU-145 prostate) 0.34 µM | GI50 (EKVX NSCLC) 0.339 µM | GI50 (HCC-2998 colon) 0.154 µM | GI50 (HCT-116 colon) 0.0413 µM | GI50 (HCT-15 colon) 0.179 µM | GI50 (HL-60(TB) leukemia) 0.0798 µM | GI50 (HOP-62 NSCLC) 0.304 µM | GI50 (HOP-92 NSCLC) 0.213 µM | GI50 (HS 578T breast) 0.325 µM | GI50 (IGROV1 ovarian) 0.166 µM | GI50 (K-562 leukemia) 0.155 µM | GI50 (KM12 colon) 0.176 µM | GI50 (LOX IMVI melanoma) 0.169 µM | GI50 (M14 melanoma) 0.0954 µM | GI50 (MALME-3M melanoma) 0.34 µM | GI50 (MCF7 breast) 0.0942 µM | GI50 (MDA-MB-231 breast) 0.355 µM | GI50 (MDA-MB-435) 0.057 µM | GI50 (MOLT-4 leukemia) 0.1 µM | GI50 (NCI-H226 lung) 0.369 µM | GI50 (NCI-H23 lung) 0.26 µM | GI50 (NCI-H460 lung) 0.0385 µM | GI50 (NCI-H522 lung) 0.226 µM | GI50 (NCI/ADR-RES ovarian) 0.27 µM | GI50 (OVCAR-8 ovarian) 0.146 µM | GI50 (PC-3 prostate) 0.0834 µM | GI50 (RPMI-8226 leukemia) 0.146 µM | GI50 (SF-268 CNS) 0.0739 µM | GI50 (SF-295 CNS) 0.208 µM | GI50 (SF-539 CNS) 0.23 µM | GI50 (SK-MEL-28 melanoma) 0.247 µM | GI50 (SK-MEL-5 melanoma) 0.222 µM | GI50 (SK-OV-3 ovarian) 0.307 µM | GI50 (SN12C renal) 0.275 µM | GI50 (SNB-19 CNS) 0.223 µM | GI50 (SNB-75 CNS) 0.188 µM | GI50 (SR leukemia) 0.0664 µM | GI50 (SW-620 colon) 0.182 µM | GI50 (T-47D breast) 0.263 µM | GI50 (TK-10 renal) 0.153 µM | GI50 (U251 CNS) 0.0696 µM | GI50 (UACC-257 melanoma) 0.186 µM | GI50 (UACC-62 melanoma) 0.256 µM | GI50 (UO-31 renal) 0.142 µM
> 34.6 µM: TGI (HOP-62 NSCLC)
inactive: GI50 (786-0 renal) 0.527 µM | GI50 (A498 renal) 0.641 µM | GI50 (COLO 205 colon) 1.27 µM | GI50 (HT29 colon) 4.1 µM | GI50 (OVCAR-4 ovarian) 0.451 µM | GI50 (OVCAR-5 ovarian) 0.639 µM | GI50 (RXF 393 renal) 0.981 µM | GI50 (SK-MEL-2 melanoma) 0.442 µM
1.12 µM: TGI (M14 melanoma)
25.6 µM: TGI (NCI-H23 lung)
> 35.6 µM: TGI (U251 CNS)
> 72.3 µM: TGI (OVCAR-4 ovarian)
> 46.5 µM: TGI (OVCAR-8 ovarian)
> 69.2 µM: TGI (SF-295 CNS)
> 100 µM: TGI (BT-549 breast) | TGI (CCRF-CEM leukemia) | TGI (COLO 205 colon) | TGI (DU-145 prostate) | TGI (EKVX NSCLC) | TGI (HCC-2998 colon) | TGI (HCT-15 colon) | TGI (HS 578T breast) | TGI (HT29 colon) | TGI (KM12 colon) | TGI (MCF7 breast) | TGI (MDA-MB-435) | TGI (NCI-H226 lung) | TGI (OVCAR-5 ovarian) | TGI (PC-3 prostate) | TGI (RPMI-8226 leukemia) | TGI (SF-268 CNS) | TGI (SK-MEL-28 melanoma) | TGI (SN12C renal) | TGI (SNB-19 CNS) | TGI (SW-620 colon)
10.9 µM: TGI (ACHN renal)
2.45 µM: TGI (UO-31 renal)
> 53.1 µM: TGI (K-562 leukemia)
> 58.7 µM: TGI (RXF 393 renal)
31.8 µM: TGI (HOP-92 NSCLC)
9.87 µM: TGI (SF-539 CNS)
2.4 µM: TGI (SK-MEL-5 melanoma)
15.2 µM: TGI (CAKI-1 renal)
11 µM: TGI (MALME-3M melanoma)
> 42.4 µM: TGI (TK-10 renal)
6.99 µM: TGI (NCI/ADR-RES ovarian)
19.8 µM: TGI (A498 renal)
> 33.2 µM: TGI (A549 NSCLC)
> 25.5 µM: TGI (SK-MEL-2 melanoma)
> 55.9 µM: TGI (IGROV1 ovarian)
0.843 µM: TGI (UACC-257 melanoma)
1.13 µM: TGI (UACC-62 melanoma)
11.3 µM: TGI (786-0 renal)
7.18 µM: TGI (LOX IMVI melanoma)
33 µM: TGI (MDA-MB-231 breast)
16 µM: TGI (HCT-116 colon)
